Laboratory results as given in PubChem BioAssay (NCI).
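The compound was tested at five concentrations on cells cultured in 96-well plates, with a 48-hour exposure period. GI50 = concentration required for 50% inhibition of growth. TGI is the concentration that stops growth completely.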

Experiments:
Test in all cases: DTP human tumour cell line panel, 48 h
786-0 renal = system: 786-0 renal
A498 renal = system: A498 renal
A549 NSCLC = system: A549 NSCLC
ACHN renal = system: ACHN renal
BT-549 breast = system: BT-549 breast
CAKI-1 renal = system: CAKI-1 renal
COLO 205 colon = system: COLO 205 colon
DU-145 prostate = system: DU-145 prostate
EKVX NSCLC = system: EKVX NSCLC
HCC-2998 colon = system: HCC-2998 colon
HCT-116 colon = system: HCT-116 colon
HCT-15 colon = system: HCT-15 colon
HL-60(TB) leukemia = system: HL-60(TB) leukemia
HOP-62 NSCLC = system: HOP-62 NSCLC
HOP-92 NSCLC = system: HOP-92 NSCLC
HS 578T breast = system: HS 578T breast
HT29 colon = system: HT29 colon
K-562 leukemia = system: K-562 leukemia
KM12 colon = system: KM12 colon
LOX IMVI melanoma = system: LOX IMVI melanoma
M14 melanoma = system: M14 melanoma
MALME-3M melanoma = system: MALME-3M melanoma
MCF7 breast = system: MCF7 breast
MDA-MB-231 breast = system: MDA-MB-231 breast
MDA-MB-435 = system: MDA-MB-435
MOLT-4 leukemia = system: MOLT-4 leukemia
NCI-H226 lung = system: NCI-H226 lung
NCI-H23 lung = system: NCI-H23 lung
NCI-H460 lung = system: NCI-H460 lung
NCI-H522 lung = system: NCI-H522 lung
NCI/ADR-RES ovarian = system: NCI/ADR-RES ovarian
OVCAR-3 ovarian = system: OVCAR-3 ovarian
OVCAR-4 ovarian = system: OVCAR-4 ovarian
OVCAR-5 ovarian = system: OVCAR-5 ovarian
OVCAR-8 ovarian = system: OVCAR-8 ovarian
PC-3 prostate = system: PC-3 prostate
RPMI-8226 leukemia = system: RPMI-8226 leukemia
RXF 393 renal = system: RXF 393 renal
SF-268 CNS = system: SF-268 CNS
SF-295 CNS = system: SF-295 CNS
SF-539 CNS = system: SF-539 CNS
SK-MEL-2 melanoma = system: SK-MEL-2 melanoma
SK-MEL-28 melanoma = system: SK-MEL-28 melanoma
SK-MEL-5 melanoma = system: SK-MEL-5 melanoma
SK-OV-3 ovarian = system: SK-OV-3 ovarian
SN12C renal = system: SN12C renal
SNB-19 CNS = system: SNB-19 CNS
SNB-75 CNS = system: SNB-75 CNS
SR leukemia = system: SR leukemia
SW-620 colon = system: SW-620 colon
T-47D breast = system: T-47D breast
TK-10 renal = system: TK-10 renal
U251 CNS = system: U251 CNS
UACC-257 melanoma = system: UACC-257 melanoma
UACC-62 melanoma = system: UACC-62 melanoma
UO-31 renal = system: UO-31 renal

O=[N+]([O-])c1cccc2ccc(N/N=C/c3ccccc3O)nc12
GI50 (786-0 renal): > 100 µM | TGI (786-0 renal): > 100 µM | GI50 (A498 renal): > 100 µM | TGI (A498 renal): > 100 µM | GI50 (A549 NSCLC): > 100 µM | TGI (A549 NSCLC): > 100 µM | GI50 (ACHN renal): > 100 µM | TGI (ACHN renal): > 100 µM | GI50 (BT-549 breast): > 100 µM | TGI (BT-549 breast): > 100 µM | GI50 (CAKI-1 renal): > 100 µM | TGI (CAKI-1 renal): > 100 µM | GI50 (COLO 205 colon): 1.91 µM | TGI (COLO 205 colon): > 19.8 µM | GI50 (DU-145 prostate): > 23.8 µM | TGI (DU-145 prostate): > 100 µM | GI50 (EKVX NSCLC): > 100 µM | TGI (EKVX NSCLC): > 100 µM | GI50 (HCC-2998 colon): > 100 µM | TGI (HCC-2998 colon): > 100 µM | GI50 (HCT-116 colon): 2.19 µM | TGI (HCT-116 colon): > 100 µM | GI50 (HCT-15 colon): > 100 µM | TGI (HCT-15 colon): > 100 µM | GI50 (HL-60(TB) leukemia): 1.74 µM | TGI (HL-60(TB) leukemia): > 100 µM | GI50 (HOP-62 NSCLC): > 100 µM | TGI (HOP-62 NSCLC): > 100 µM | GI50 (HOP-92 NSCLC): > 100 µM | TGI (HOP-92 NSCLC): > 100 µM | GI50 (HS 578T breast): 72.4 µM | TGI (HS 578T breast): > 100 µM | GI50 (HT29 colon): > 100 µM | TGI (HT29 colon): > 100 µM | GI50 (K-562 leukemia): 1.46 µM | TGI (K-562 leukemia): > 100 µM | GI50 (KM12 colon): > 100 µM | TGI (KM12 colon): > 100 µM | GI50 (LOX IMVI melanoma): > 100 µM | TGI (LOX IMVI melanoma): > 100 µM | GI50 (M14 melanoma): > 100 µM | TGI (M14 melanoma): > 100 µM | GI50 (MALME-3M melanoma): > 100 µM | TGI (MALME-3M melanoma): > 100 µM | GI50 (MCF7 breast): 2.34 µM | TGI (MCF7 breast): > 100 µM | GI50 (MDA-MB-231 breast): > 100 µM | TGI (MDA-MB-231 breast): > 100 µM | GI50 (MDA-MB-435): > 100 µM | TGI (MDA-MB-435): > 100 µM | GI50 (MOLT-4 leukemia): 0.313 µM | TGI (MOLT-4 leukemia): 1.16 µM | GI50 (NCI-H226 lung): > 100 µM | TGI (NCI-H226 lung): > 100 µM | GI50 (NCI-H23 lung): > 100 µM | TGI (NCI-H23 lung): > 100 µM | GI50 (NCI-H460 lung): > 100 µM | TGI (NCI-H460 lung): > 100 µM | TGI (NCI-H522 lung): > 39.6 µM | GI50 (NCI/ADR-RES ovarian): > 100 µM | TGI (NCI/ADR-RES ovarian): > 100 µM | GI50 (OVCAR-3 ovarian): 4.48 µM | TGI (OVCAR-3 ovarian): > 100 µM | GI50 (OVCAR-4 ovarian): > 100 µM | TGI (OVCAR-4 ovarian): > 100 µM | GI50 (OVCAR-5 ovarian): > 100 µM | TGI (OVCAR-5 ovarian): > 100 µM | GI50 (OVCAR-8 ovarian): > 100 µM | TGI (OVCAR-8 ovarian): > 100 µM | GI50 (PC-3 prostate): 4.67 µM | TGI (PC-3 prostate): > 100 µM | GI50 (RPMI-8226 leukemia): 0.027 µM | TGI (RPMI-8226 leukemia): 3.12 µM | GI50 (RXF 393 renal): 65.8 µM | TGI (RXF 393 renal): > 100 µM | GI50 (SF-268 CNS): > 100 µM | TGI (SF-268 CNS): > 100 µM | GI50 (SF-295 CNS): > 87.6 µM | TGI (SF-295 CNS): > 100 µM | GI50 (SF-539 CNS): > 100 µM | TGI (SF-539 CNS): > 100 µM | GI50 (SK-MEL-2 melanoma): > 100 µM | TGI (SK-MEL-2 melanoma): > 100 µM | GI50 (SK-MEL-28 melanoma): > 100 µM | TGI (SK-MEL-28 melanoma): > 100 µM | GI50 (SK-MEL-5 melanoma): > 100 µM | TGI (SK-MEL-5 melanoma): > 100 µM | GI50 (SK-OV-3 ovarian): > 100 µM | TGI (SK-OV-3 ovarian): > 100 µM | GI50 (SN12C renal): > 100 µM | TGI (SN12C renal): > 100 µM | GI50 (SNB-19 CNS): > 100 µM | TGI (SNB-19 CNS): > 100 µM | GI50 (SNB-75 CNS): > 37.8 µM | TGI (SNB-75 CNS): > 70.6 µM | GI50 (SR leukemia): 0.148 µM | TGI (SR leukemia): 7.03 µM | GI50 (SW-620 colon): 3.88 µM | TGI (SW-620 colon): > 100 µM | GI50 (T-47D breast): 1.07 µM | TGI (T-47D breast): > 100 µM | GI50 (TK-10 renal): > 100 µM | TGI (TK-10 renal): > 100 µM | GI50 (U251 CNS): > 59.7 µM | TGI (U251 CNS): > 100 µM | GI50 (UACC-257 melanoma): > 100 µM | TGI (UACC-257 melanoma): > 100 µM | GI50 (UACC-62 melanoma): > 100 µM | TGI (UACC-62 melanoma): > 100 µM | GI50 (UO-31 renal): > 39.9 µM | TGI (UO-31 renal): > 100 µM
